From BindingDB's records for patent US12552811 (Abbisko Therapeutics Co., 2026)

Target: Programmed cell death 1 ligand/protein 1 (Homo sapiens, UniProt Q15116+Q9NZQ7)
Assay: PD1-PDL1 HTRF Binding Activity Assay
Protocol: 1) Pre-diluted compound solution, 4 μL of Tag1-PD-L1 and 4 μL of Tag2-PD1 were added to each well of a 384-well plate:2) After the mixture was incubated at room temperature for 15 min, 5 μL of anti-Tag1-Eu3+ antibody and 5 μL of anti-Tag2-XL665 antibody were then added;3) After incubated for 2 hrs at room temperature or overnight at 4° C., plates were read on Envision of Pelkin Elmer; and readings at 665 nm and 620 nm were recorded, and the ratio of the two readings was taken as a reading for each well;4) The reading of each well after compound treatment was compared with the reading of DMSO treated wells to obtain the percent inhibition of the compound;5) IC50 values of compounds and positive compounds of the examples of the present invention were determined by non-linear regression analysis of percent inhibition at different compound concentrations.

Sequence of Programmed cell death 1 ligand/protein 1 (Q9NZQ7 whole entry): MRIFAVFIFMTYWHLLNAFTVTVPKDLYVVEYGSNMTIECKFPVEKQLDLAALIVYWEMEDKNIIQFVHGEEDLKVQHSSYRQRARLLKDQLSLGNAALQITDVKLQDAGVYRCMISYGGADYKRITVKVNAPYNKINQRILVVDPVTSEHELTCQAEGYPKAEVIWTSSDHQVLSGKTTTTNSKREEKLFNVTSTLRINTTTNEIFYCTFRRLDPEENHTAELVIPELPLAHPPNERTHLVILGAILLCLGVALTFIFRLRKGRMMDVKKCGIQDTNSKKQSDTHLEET
Sequence of Programmed cell death 1 ligand/protein 1 (Q15116 whole entry): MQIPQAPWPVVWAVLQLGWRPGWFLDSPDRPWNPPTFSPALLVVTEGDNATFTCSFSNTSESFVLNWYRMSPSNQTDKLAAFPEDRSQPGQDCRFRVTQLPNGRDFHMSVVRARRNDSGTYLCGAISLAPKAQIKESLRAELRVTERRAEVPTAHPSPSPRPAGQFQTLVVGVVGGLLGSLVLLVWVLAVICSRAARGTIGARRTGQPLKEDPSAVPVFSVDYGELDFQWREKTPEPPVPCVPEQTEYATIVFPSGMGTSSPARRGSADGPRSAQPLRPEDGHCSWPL

SMILES: CC(C)N1CCc2cc(C(=O)Nc3cccc(-c4cccc(NC(=O)c5cc(C6CC6)c(CN6CCCC[C@H]6C(=O)O)cn5)c4Cl)c3Cl)ncc2C1 [US12552811, Example 32]
- IC50: 661 pM
